Experimental data published in paper PMC3731256, “Optimization of Substituted 6-Salicyl-4-Anilinoquinazoline Derivatives as Dual EGFR/HER2 Tyrosine Kinase Inhibitors” (PLoS ONE, 2013).
Read-outs that look alike come from different tables or passages of the source.

What was measured:
[1] = target: T1, human EGFR (Homo sapiens, UniProt P00533); assay: EGFR kinase assay ([γ-32P] ATP, poly-Glu-Tyr); type: biochemical; conditions: phosphorylation of poly-Glu-Tyr copolymer; mean, >1 determination; read-out: Enzyme activity IC50 against EGFR kinase
T1 construct: the cytoplasmic domain (amino acids 669-1210) of human EGFR; FLAG (DYKDDDD) (N); made in house
T1 sequence (P00533 669-1210): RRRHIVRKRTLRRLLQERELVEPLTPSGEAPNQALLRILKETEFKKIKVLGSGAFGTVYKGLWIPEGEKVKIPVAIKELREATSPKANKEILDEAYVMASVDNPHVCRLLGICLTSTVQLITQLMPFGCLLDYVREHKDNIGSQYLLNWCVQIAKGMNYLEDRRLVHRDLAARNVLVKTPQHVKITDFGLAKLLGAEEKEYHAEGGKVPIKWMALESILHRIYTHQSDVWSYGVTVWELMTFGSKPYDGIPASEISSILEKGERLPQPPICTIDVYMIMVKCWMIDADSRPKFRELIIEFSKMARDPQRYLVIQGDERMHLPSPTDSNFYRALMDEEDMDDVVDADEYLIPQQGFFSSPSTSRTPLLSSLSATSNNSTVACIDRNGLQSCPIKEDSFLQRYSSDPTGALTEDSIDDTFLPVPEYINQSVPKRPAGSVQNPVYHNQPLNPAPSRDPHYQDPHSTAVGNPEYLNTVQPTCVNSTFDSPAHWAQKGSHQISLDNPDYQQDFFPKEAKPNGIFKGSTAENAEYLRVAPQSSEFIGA
Description: (§1) The expressed HER2 kinase and EGFR kinase were purified by anti-FLAG M2 affinity gel (Sigma-Aldrich, USA). The HER2 and EGFR kinase assays were performed using radiolabeled [γ-^32P] ATP (GEHealthcare, USA) in 96-well plates. The kinase reactions were performed in 50 mmol/L Tris-HCl, pH7.5, 5 mmol/L MnCl2, 0.01% Tween-20 and 2 mmol/L DTT containing 0.9 μCi of [γ-^32P] ATP per reaction, 50 μmol/L ATP, 5 μg/mL poly-Glu-Tyr (4:1) and 0.25 μg/mL of purified Her2 or EGFR cytoplasmic domain in a total volume of 50 μL. […] Kinase reactions were initiated by adding ATP. After the kinase reaction incubated for 10 minutes at room temperature, reactions were terminated by the addition of 10% (final concentration) trichloroacetic acid. The [γ-^32P]-phosphorylated proteins were filtered in a harvest plate (Millipore, USA) with a cell harvester (PerkinElmer, USA) and washed free of [γ-^32P] ATP with 3% phosphoric acid. The plates were dried, followed by the addition of 25 μL of MicroScintO (PerkinElmer, USA). Radioactivity was counted by a Topcount scintillation counter (PerkinElmer, USA).

[2] = system: MCF-7 cells; assay: Antiproliferation WST-1 assay, MCF-7; type: cell-based, human
Description: (§2) WST-1 is better than MTT for analyzing cell proliferation, because it can be reduced to soluble formazan by dehydrogenase in mitochondria and has little toxicity to cells. Cell proliferation was determined using WST-1 dye (Beyotime Inst Biotech, China) according to manufacture’s instructions. Brieﬂy, 5 × 10^3 cells per well were seeded in a 96-well plate, grown at 37 ℃ for 24 h, and then placed in serum-starved conditions for a further 6 h. Subsequently, cells were treated with compounds (Table 1) at increasing concentrations in the presence of 10% FBS for 24 or 48h. After 10 µL WST-1 dye was added to each well, cells were incubated at 37 ℃ for 2 h and the absorbance was ﬁnally determined at 450 nm using a microplate reader.

[3] = system: A431 cells; assay: Antiproliferation WST-1 assay, A431; type: cell-based, human
Description: as §2

[4] = system: A549 cells; assay: Antiproliferation WST-1 assay, A549; type: cell-based, human
Description: as §2

[5] = target: T2, human HER2 (Homo sapiens, UniProt P04626); assay: HER2 kinase assay ([γ-32P] ATP, poly-Glu-Tyr); type: biochemical; conditions: phosphorylation of poly-Glu-Tyr copolymer; mean, >1 determination; read-out: Enzyme activity IC50 against HER2 kinase
T2 construct: The cytoplasmic domain (amino acids 676-1255) of human HER2; FLAG (DYKDDDD) (N); made in house
T2 sequence (P04626 676-1255): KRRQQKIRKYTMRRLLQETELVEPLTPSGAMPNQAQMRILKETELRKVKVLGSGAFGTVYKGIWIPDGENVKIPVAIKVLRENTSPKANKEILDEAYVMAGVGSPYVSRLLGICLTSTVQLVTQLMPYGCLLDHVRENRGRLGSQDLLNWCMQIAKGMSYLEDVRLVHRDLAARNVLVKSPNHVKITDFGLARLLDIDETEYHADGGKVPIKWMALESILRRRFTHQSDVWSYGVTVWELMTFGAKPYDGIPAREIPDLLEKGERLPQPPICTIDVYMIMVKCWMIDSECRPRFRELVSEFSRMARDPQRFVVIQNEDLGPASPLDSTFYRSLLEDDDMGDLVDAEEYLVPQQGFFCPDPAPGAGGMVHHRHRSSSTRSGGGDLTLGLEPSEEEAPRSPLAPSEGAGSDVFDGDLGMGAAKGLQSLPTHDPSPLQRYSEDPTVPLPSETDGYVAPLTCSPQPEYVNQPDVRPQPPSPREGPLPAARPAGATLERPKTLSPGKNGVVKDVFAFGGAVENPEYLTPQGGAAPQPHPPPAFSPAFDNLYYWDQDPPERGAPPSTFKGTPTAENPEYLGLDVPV
Description: as §1

[6] = system: MDA-MB-453 cells; assay: Antiproliferation WST-1 assay, MDA-MB-453; type: cell-based; conditions: Homo sapiens, breast cancer, HER-2++, PTEN deficiency
Description: as §2

[7] = system: H1781 cells; assay: Antiproliferation WST-1 assay, H1781; type: cell-based; conditions: NCI-H1781, NSCLC, HER-2 G776ins V_G/C, lapatinib-resistant
Description: as §2

[8] = system: H1975 cells; assay: Antiproliferation WST-1 assay, H1975; type: cell-based; conditions: Homo sapiens, NCI-H1975, NSCLC, EGFR L858R/T790M
Description: as §2

[9] = Homo sapiens, MCF7, WST-1 assay, MCF-7 breast cancer, Her2/neu overexpression, read-out: Cellular IC50, MCF-7
[10] = Homo sapiens, A-431, WST-1 assay, A431, overexpression of EGFR, read-out: Cellular IC50, A431
[11] = WST-1 assay, A549 carcinomic human alveolar basal epithelial cell, read-out: Cellular IC50, A549
[12] = Homo sapiens, MCF7, read-out: Cellular IC50, MCF-7
[13] = Homo sapiens, A549, read-out: Cellular IC50, A549
[14] = WST-1 assay, MCF-7 breast cancer, Her2/neu overexpression, read-out: Cellular IC50, MCF-7
[15] = WST-1 assay, A431, overexpression of EGFR, read-out: Cellular IC50, A431

Row | IC50 ([3]; Homo sapiens, A-431, read-out: Cellular IC50, A431) [µM] | IC50 [6] [µM] | IC50 [7] [µM] | IC50 [8] [µM] | IC50 [2, 12] [µM] | IC50 [4, 13] [µM] | Compound | IC50 [1] [µM] | IC50 [2, 9] [µM] | IC50 [3, 10] [µM] | melting point [°C] | IC50 [4, 11] [µM] | IC50 [5] [µM] | IC50 [2, 14] [µM] | IC50 [3, 15] [µM]
1 | – | – | – | – | – | – | O=C(Nc1ccc2ncnc(Nc3cccc(Br)c3)c2c1)c1cc(Cl)ccc1O [Compound 19, N-(4-(3-bromophenylamino)quinazolin-6-yl)-5-chloro-2-hydroxybenzamide] | 1.07 ± 0.018 | 1.12 ± 0.087 | 1.28 ± 0.013 | 304 to 306 | 1.77 ± 0.056 | 1.8 ± 0.009 | – | –
2 | – | – | – | – | – | – | Oc1c(Cl)cc(Cl)cc1CNc1ccc2ncnc(Nc3cccc(Cl)c3)c2c1 [Compound 14, 2,4-dichloro-6-((4-(3-chlorophenylamino)quinazolin-6-ylamino)methyl)phenol] | 0.65 ± 0.009 | 0.8 ± 0.005 | 0.92 ± 0.062 | 211 to 213 | 1.59 ± 0.038 | 0.92 ± 0.009 | – | –
3 | – | – | – | – | – | – | CCOc1ccccc1C(=O)Nc1ccc2ncnc(Nc3cccc(Cl)c3)c2c1 [Compound 26, N-(4-(3-chlorophenylamino)quinazolin-6-yl)-2-ethoxybenzamide] | 6.3 ± 0.076 | 0.82 ± 0.082 | 0.76 ± 0.002 | 111 to 113 | 1.58 ± 0.093 | 4.1 ± 0.091 | – | –
4 | – | – | – | – | – | – | Oc1ccc(Br)cc1CNc1ccc2ncnc(Nc3cccc(Cl)c3)c2c1 [Compound 15, 4-bromo-2-((4-(3-chlorophenylamino)quinazolin-6-ylamino)methyl)phenol] | 0.76 ± 0.073 | 0.81 ± 0.033 | 0.96 ± 0.005 | 227 to 229 | 2.12 ± 0.022 | 3.8 ± 0.002 | – | –
5 | – | – | – | – | – | – | O=C(Nc1ccc2ncnc(Nc3cccc(Cl)c3)c2c1)c1ccccc1O [Compound 22, N-(4-(3-chlorophenylamino)quinazolin-6-yl)-2-hydroxybenzamide] | 0.16 ± 0.007 | 0.61 ± 0.005 | 0.74 ± 0.006 | 117 to 120 | 1.39 ± 0.054 | 0.84 ± 0.003 | – | –
6 | – | – | – | – | – | – | O=C(Nc1ccc2ncnc(Nc3cccc(Br)c3)c2c1)c1cc(Br)ccc1O [Compound 18, 5-bromo-N-(4-(3-bromophenylamino)quinazolin-6-yl)-2-hydroxybenzamide] | 1.3 ± 0.098 | 1.23 ± 0.035 | 1.62 ± 0.008 | 297 to 299 | 0.8 ± 0.004 | 1.6 ± 0.012 | – | –
7 | – | – | – | – | – | – | O=C(Nc1ccc2ncnc(Nc3cccc(Br)c3)c2c1)c1cc(Br)cc(Br)c1O [Compound 20, 3,5-dibromo-N-(4-(3-bromophenylamino)quinazolin-6-yl)-2-hydroxybenzamide] | 1.4 ± 0.023 | 1.31 ± 0.029 | 1.39 ± 0.023 | 274 to 276 | 1.8 ± 0.167 | 2.1 ± 0.066 | – | –
8 | – | – | – | – | – | – | O=C(Nc1ccc2ncnc(Nc3cccc(Cl)c3)c2c1)c1ccc(Cl)cc1O [Compound 23, 4-chloro-N-(4-(3-chlorophenylamino)quinazolin-6-yl)-2-hydroxybenzamide] | 0.32 ± 0.008 | 0.55 ± 0.007 | 0.84 ± 0.009 | 211 to 213 | 1.36 ± 0.016 | 1.2 ± 0.022 | – | –
9 | – | – | – | – | – | – | Cc1ccc(C(=O)Nc2ccc3ncnc(Nc4cccc(Cl)c4)c3c2)c(O)c1 [Compound 24, N-(4-(3-chlorophenylamino)quinazolin-6-yl)-2-hydroxy-4-methylbenzamide] | 0.49 ± 0.003 | 0.47 ± 0.004 | 0.63 ± 0.004 | 257 to 258 | 1.3 ± 0.012 | 2 ± 0.182 | – | –
10 | < 1 | – | – | – | – | – | Nc1ccc2ncnc(Nc3cccc(Br)c3)c2c1 [Compound 7, N4-(3-bromophenyl)quinazoline-4,6-diamine] | – | < 1 | – | – | – | – | – | –
11 | – | 0.72 ± 0.023 | 2.1 ± 0.034 | 3.9 ± 0.419 | 0.21 ± 0.003 | 1.12 ± 0.022 | CS(=O)(=O)CCNCc1ccc(-c2ccc3ncnc(Nc4ccc(OCc5cccc(F)c5)c(Cl)c4)c3c2)o1 [Lapatinib, reference compound] | – | – | – | – | – | – | – | –
12 | – | – | – | – | – | – | Oc1c(Br)cc(Br)cc1CNc1ccc2ncnc(Nc3cccc(Cl)c3)c2c1 [Compound 16, 2,4-dibromo-6-((4-(3-chlorophenylamino)quinazolin-6-ylamino)methyl)phenol] | 0.89 ± 0.053 | 0.99 ± 0.006 | 1.32 ± 0.126 | 207 to 209 | 1.65 ± 0.094 | 2.1 ± 0.0087 | – | –
13 | – | – | – | – | – | – | Oc1c(Cl)cc(Cl)cc1CNc1ccc2ncnc(Nc3cccc(Br)c3)c2c1 [Compound 10, 2-((4-(3-bromophenylamino)quinazolin-6-ylamino)methyl)-4,6-dichlorophenol] | 0.72 ± 0.036 | 0.84 ± 0.004 | 1.03 ± 0.027 | 214 to 216 | 1.93 ± 0.071 | 1.1 ± 0.095 | – | –
14 | – | – | – | – | – | – | Oc1c(Br)cc(Br)cc1CNc1ccc2ncnc(Nc3cccc(Br)c3)c2c1 [Compound 12, 2,4-dibromo-6-((4-(3-bromophenylamino)quinazolin-6-ylamino)methyl)phenol] | 0.95 ± 0.072 | < 1 | < 1 | 169 to 171 | 1.82 ± 0.062 | 0.98 ± 0.002 | 1.07 ± 0.016 | 1.14 ± 0.036
15 | – | – | – | – | – | – | O=C(Nc1ccc2ncnc(Nc3cccc(Cl)c3)c2c1)c1cc(Br)ccc1O [Compound 25, 5-bromo-N-(4-(3-chlorophenylamino)quinazolin-6-yl)-2-hydroxybenzamide] | 0.58 ± 0.007 | 0.74 ± 0.013 | 0.88 ± 0.011 | 299 to 301 | 1.69 ± 0.078 | 2.6 ± 0.133 | – | –
16 | – | – | – | – | – | – | Oc1ccc(Br)cc1CNc1ccc2ncnc(Nc3cccc(Br)c3)c2c1 [Compound 11, 4-bromo-2-((4-(3-bromophenylamino)quinazolin-6-ylamino)methyl)phenol] | 0.57 ± 0.008 | 0.9 ± 0.018 | 0.87 ± 0.009 | 189 to 191 | 2.13 ± 0.128 | 1.4 ± 0.003 | – | –
17 | – | – | – | – | – | – | O=C(Nc1ccc2ncnc(Nc3cccc(Br)c3)c2c1)c1ccc(Cl)cc1O [Compound 17, N-(4-(3-bromophenylamino)quinazolin-6-yl)-4-chloro-2-hydroxybenzamide] | 1.2 ± 0.071 | 1.21 ± 0.029 | 1.46 ± 0.027 | 274 to 277 | 1.59 ± 0.035 | 2.8 ± 0.0031 | – | –
18 | – | – | – | – | – | – | O=C(Nc1ccc2ncnc(Nc3cccc(Br)c3)c2c1)c1ccc(Cl)cc1 [Compound 27, N-(4-(3-bromophenylamino)quinazolin-6-yl)-4-chlorobenzamide] | 7.7 ± 0.088 | 1.29 ± 0.076 | 1.48 ± 0.034 | 230 to 232 | 1.78 ± 0.034 | 4.6 ± 0.226 | – | –
19 | – | – | – | – | 1.07 ± 0.028 | 0.92 ± 0.013 | C#Cc1cccc(Nc2ncnc3cc(OCCOC)c(OCCOC)cc23)c1 [Erlotinib, reference compound] | – | – | – | – | – | – | – | –
20 | – | – | – | – | – | – | Oc1ccc(Cl)cc1CNc1ccc2ncnc(Nc3cccc(Br)c3)c2c1 [Compound 9, 2-((4-(3-bromophenylamino)quinazolin-6-ylamino)methyl)-4-chlorophenol] | 0.41 ± 0.024 | < 1 | < 1 | 230 to 232 | 2.37 ± 0.089 | 1.7 ± 0.051 | 0.77 ± 0.008 | 0.98 ± 0.003
21 | – | – | – | – | – | – | Oc1ccc(Cl)cc1CNc1ccc2ncnc(Nc3cccc(Cl)c3)c2c1 [Compound 13, 4-chloro-2-((4-(3-chlorophenylamino)quinazolin-6-ylamino)methyl)phenol] | 0.83 ± 0.065 | < 1 | < 1 | 238 to 240 | 2.17 ± 0.049 | 2.3 ± 0.034 | 0.92 ± 0.012 | 1.26 ± 0.051
